Test results from the NIST ThermoML archive (doi:10.1021/je050261u).
Numbers after ± are expanded uncertainties.

Test: xn = mol fraction of the nth substance listed
Details: Liquid, Vibrating tube method

CCCCCCC [heptane] + CCO
mass density [kg/m3]
Details	x2 = 0	x2 = 0.125	x2 = 0.25	x2 = 0.375	x2 = 0.5	x2 = 0.625	x2 = 0.75	x2 = 0.875
313.15 K, 35000 kPa	696.9 ± 1.1	701.6 ± 1.1	707 ± 1.1	714.3 ± 1.1	723.6 ± 1.1	735 ± 1.1	750.3 ± 1.1	770.6 ± 1.1
313.15 K, 40000 kPa	700.4 ± 1.2	705.2 ± 1.2	710.6 ± 1.2	717.9 ± 1.1	727.2 ± 1.1	738.6 ± 1.1	753.8 ± 1.1	774.1 ± 1.1
313.15 K, 45000 kPa	703.9 ± 1.2	708.6 ± 1.2	714.1 ± 1.2	721.3 ± 1.2	730.8 ± 1.2	742.1 ± 1.1	757.3 ± 1.1	777.6 ± 1.1
313.15 K, 50000 kPa	707.1 ± 1.2	711.9 ± 1.2	717.4 ± 1.2	724.7 ± 1.2	734.1 ± 1.2	745.4 ± 1.2	760.6 ± 1.1	780.9 ± 1.1
313.15 K, 55000 kPa	710.1 ± 1.2	715.1 ± 1.2	720.6 ± 1.2	727.9 ± 1.2	737.3 ± 1.2	748.6 ± 1.2	763.8 ± 1.2	784.1 ± 1.1
313.15 K, 60000 kPa	713.1 ± 1.3	718.1 ± 1.3	723.6 ± 1.2	730.9 ± 1.2	740.2 ± 1.2	751.6 ± 1.2	766.9 ± 1.2	787.1 ± 1.2
313.15 K, 65000 kPa	716 ± 1.3	721 ± 1.3	726.6 ± 1.3	733.9 ± 1.3	743.2 ± 1.2	754.7 ± 1.2	769.9 ± 1.2	790.1 ± 1.2
323.15 K, 100 kPa	657.7 ± 1	661.8 ± 1	666.9 ± 1	674.1 ± 1	683.5 ± 1	695 ± 1	710.6 ± 1	731.7 ± 1
323.15 K, 5000 kPa	663.4 ± 1	667.4 ± 1	672.6 ± 1	679.7 ± 1	689.2 ± 1	700.5 ± 1	716.1 ± 1	737 ± 1
323.15 K, 10000 kPa	668.7 ± 1.1	672.7 ± 1.1	678 ± 1.1	685.2 ± 1	694.6 ± 1	705.8 ± 1	721.3 ± 1	742.1 ± 1
323.15 K, 15000 kPa	673.4 ± 1.1	677.6 ± 1.1	682.9 ± 1.1	690 ± 1.1	699.4 ± 1.1	710.7 ± 1.1	726.1 ± 1	746.7 ± 1
323.15 K, 20000 kPa	678 ± 1.1	682.2 ± 1.1	687.6 ± 1.1	694.7 ± 1.1	704 ± 1.1	715.3 ± 1.1	730.6 ± 1.1	751.1 ± 1.1
323.15 K, 25000 kPa	682.5 ± 1.1	686.8 ± 1.1	692.1 ± 1.1	699.2 ± 1.1	708.5 ± 1.1	719.8 ± 1.1	735.1 ± 1.1	755.5 ± 1.1
323.15 K, 30000 kPa	686.5 ± 1.1	690.9 ± 1.1	696.2 ± 1.1	703.4 ± 1.1	712.7 ± 1.1	723.9 ± 1.1	739.1 ± 1.1	759.5 ± 1.1
323.15 K, 35000 kPa	690.4 ± 1.1	694.7 ± 1.1	700 ± 1.1	707.3 ± 1.1	716.6 ± 1.1	727.8 ± 1.1	743 ± 1.1	763.4 ± 1.1
323.15 K, 40000 kPa	694.1 ± 1.2	698.5 ± 1.2	703.7 ± 1.2	711 ± 1.2	720.4 ± 1.1	731.6 ± 1.1	746.8 ± 1.1	767 ± 1.1
323.15 K, 45000 kPa	697.7 ± 1.2	702 ± 1.2	707.4 ± 1.2	714.6 ± 1.2	724 ± 1.2	735.2 ± 1.1	750.3 ± 1.1	770.6 ± 1.1
323.15 K, 50000 kPa	701.1 ± 1.2	705.4 ± 1.2	710.8 ± 1.2	718 ± 1.2	–	–	–	–
